“And” between values parts separate entries of the source, which are not always exact repeats. Identical values can stand only once. Like-named read-outs stand apart in the source and are kept apart here.
How the values were obtained:
[1] = Stability of 15% nafarelin formulation, one month at 37° C., RP-HPLC; assay type: physicochemical; details: 15% (w/w), Acetate Buffer/Mannitol
Experimental: Stability samples were analyzed using RP-HPLC. The area under the curve for the leuprolide peak divided by the sum of the areas under the curve of all peaks gave % purity. […] Formulations of 15% (w/w) nafarelin in acetate buffer with 3% mannitol were prepared as described above and placed in polymeric containers. The containers were stored at 37° C. for one month in an incubator. The samples were analyzed using RP-HPLC to determine the chemical stability of the aged formulations.

[2] = Gelation of aqueous peptide formulations on adding polar aprotic solvents such as DMSO; assay type: physicochemical; details: aqueous formulation
Description: Thus, these solvents have an anti-gellant effect.

[3] = Accelerated stability of 30% goserelin at 80° C., purity by RP-HPLC; assay type: physicochemical; details: 30% (w/w) in acetate buffer pH 5.0 with 3% mannitol, glass ampules, after 9 days
[4] = Stability of 40-45% goserelin formulations, one month at 37° C., RP-HPLC; assay type: physicochemical; details: for % PURITY / % CONCENTRATION: 40-45% (w/w); for % CONCENTRATION: patent calls these data inconclusive
Experimental: Stability samples were analyzed using RP-HPLC. The area under the curve for the leuprolide peak divided by the sum of the areas under the curve of all peaks gave % purity. […] Formulations of 40-45% (w/w) goserelin in either acetate buffer, with 3% mannitol or acetate buffer with salt (0.9% NaCl) were prepared as described above and placed in polymeric containers. The containers were stored at 37° C. for one month in an incubator. The samples were analyzed using RP-HPLC to determine the chemical stability of the aged formulations.

[5] = assay type: physicochemical; details: for evaporated from reservoir / % Leuprolide at Day 7: 88° C.; for evaporated from reservoir: 7 days
Description: The reservoirs of implantable drug delivery devices (as disclosed in U.S. patent application Ser. No. 08/595,761, incorporated herein by reference) were filled with the appropriate leuprolide acetate solution. The filled devices then underwent stability testing. The formulation was filled into titanium or polymer reservoirs with a polymer plug blocking each end. The filled reservoir was then sealed in a polyfoil bag and placed in a stability testing oven. […] The chromatographic conditions used are listed below. Leuprolide standards (in water) at 4 to 6 different concentration levels, typically between 0.1-1.2 mg/mL, were run along with the stability samples. The stability samples were bracketed by the standard sets, with no more than 40 samples in between the standard sets. All peaks between the void volume and 45 minutes of the run were integrated. The integrated peak areas for the leuprolide standards were plotted as a function of the concentration. The leuprolide concentrations for the stability samples were then calculated using linear regression. The % peak areas for the leuprolide peak, the sum of all the peaks eluting before leuprolide (labeled "others"), and the sum of all the peaks eluting after leuprolide (labeled "aggregates") were also recorded and plotted as a function of the sample timepoints. Formulations of 40% (w/w) leuprolide acetate (equivalent to about 37% leuprolide free base) in either sterile distilled water, ethanol/water (70/30) or water with 10% Tween 20 were prepared as described above and used to fill the reservoirs of implantable drug delivery devices, also as described above. Some reservoirs were made of polymer materials, while some were titanium. The filled devices were subjected to accelerated aging by storing them at elevated temperatures (80-88° C.) for seven days in an incubator (Precision Scientific or Thelco). This is equivalent to about 1.5 years at 37° C. or about four years at room temperature (25° C.), assuming an activation energy (Ea) or 22.2 kcal/mole. The samples were analyzed using RP-HPLC and SEC as described above to determine the chemical and physical stability of the aged formulations.

[6] = Stability of 40% leuprolide acetate formulations after 2.5 megarad gamma irradiation and accelerated aging, RP-HPLC and SEC; assay type: physicochemical; details: for % Leuprolide at Day 7 (RP-HPLC) / SEC Day 0 % dimer/trimer / SEC Day 0 % monomer / SEC Day 7 % dimer/trimer / SEC Day 7 % monomer: 40% in Water
Experimental: (§1) The chromatographic conditions used are listed below.
Formulations of 40% (w/w) as received leuprolide acetate (equivalent to 37% leuprolide free base) in water were prepared as described above and used to fill the reservoirs of drug delivery devices, also as described above. Some reservoirs were made of polymer materials, while some were titanium.
The filled devices were subjected to 2.5 megarad gamma irradiation. Samples were shipped to Sterigenics (Tustin, Calif.) and gamma irradiated (Cobalt 60) in batch mode. Samples were then subjected to accelerated aging as in Example 1. Samples labeled "cold" were shipped and irradiated on dry ice. Samples were taken at day 0 and day 7, and analyzed using RP-HPLC and SEC as described above to determine the chemical and physical stability of the irradiated formulations.

[7] = Experimental: as §1
Selected stability samples were analyzed for % peak area and molecular weights using an isocratic solution SEC assay with a refrigerated autosampler (4° C.). The chromatographic conditions used are listed below.
Solutions of 40% leuprolide acetate (w/w) in water were prepared, loaded into reservoirs, stored for two months at 80° C. and analyzed as described above.
Leuprolide acetate solutions (40% (w/w) in water) were prepared, loaded, stored at 37° C., 50° C., 65° C. or 80° C. and analyzed using RP-HPLC as described above.
Solutions of 40% leuprolide acetate (w/w) in water were prepared, loaded into reservoirs, stored at 37° C., 50° C., 65° C. or 80° C. and analyzed using RP-HPLC as described above.

bacteria = experiment: Bacteriostatic, bactericidal and sporicidal activity of leuprolide formulations; spiking with bacteria; details: formulations of 50-400 mg/ml
[8] = 40% in water, nine months at 37° C., RP-HPLC
Experimental: All stability samples were analyzed for leuprolide concentration and % peak area using a gradient elution reversed-phase HPLC assay with a refrigerated autosampler (4° C.) to minimize sample degradation.

[9] = Acetate Buffer/Salt (0.9% NaCl)
[10] = all Table IV formulations, after irradiation and 7 days accelerated aging
[11] = polymer reservoir, irradiated cold (on dry ice)
[12] = polymer reservoir, not irradiated
[13] = titanium reservoir, not irradiated

Compound: CC(C)C[C@H](NC(=O)[C@@H](Cc1ccc2ccccc2c1)NC(=O)[C@H](Cc1ccc(O)cc1)NC(=O)[C@H](CO)NC(=O)[C@H](Cc1c[nH]c2ccccc12)NC(=O)[C@H](Cc1c[nH]cn1)NC(=O)[C@@H]1CCC(=O)N1)C(=O)N[C@@H](CCCNC(=N)N)C(=O)N1CCC[C@H]1C(=O)NCC(N)=O [Nafarelin, nafarelin]
- % PURITY [1]: 98.8%
- nafarelin retained [1]: at least 98%
- % CONCENTRATION ([1]; patent calls these data inconclusive): 18.3%

Compound: calcitonin
- effect of adding polar aprotic solvents such as DMSO on gelation [2]: prevents gelation

Compound: CC(C)C[C@H](NC(=O)[C@@H](COC(C)(C)C)NC(=O)[C@H](Cc1ccc(O)cc1)NC(=O)[C@H](CO)NC(=O)[C@H](Cc1c[nH]c2ccccc12)NC(=O)[C@H](Cc1cnc[nH]1)NC(=O)[C@@H]1CCC(=O)N1)C(=O)N[C@@H](CCCNC(=N)N)C(=O)N1CCC[C@H]1C(=O)NNC(N)=O [Goserelin, goserelin]
- goserelin remained [3]: about 65%
- % PURITY ([4]; Acetate Buffer/Mannitol): 98.1%
- % CONCENTRATION ([4]; Acetate Buffer/Mannitol): 54.2%
- % PURITY [4, 9]: 98.0%
- % CONCENTRATION [4, 9]: 50.1%
- goserelin retained, in each case ([4]; both vehicles): at least 98%
- effect of adding polar aprotic solvents such as DMSO on gelation [2]: prevents gelation

Compound: CCNC(=O)[C@@H]1CCCN1C(=O)[C@H](CCCNC(=N)N)NC(=O)[C@H](CC(C)C)NC(=O)[C@@H](CC(C)C)NC(=O)[C@H](Cc1ccc(O)cc1)NC(=O)[C@H](CO)NC(=O)[C@H](Cc1c[nH]c2ccccc12)NC(=O)[C@H](Cc1c[nH]cn1)NC(=O)[C@@H]1CCC(=O)N1 [Leuprolide Acetate, leuprolide acetate]
- evaporated from reservoir ([5]; polymer reservoir, 40% in EtOH/H2O): 60%
- evaporated from reservoir ([5]; polymer reservoir, 40% in Water (sample with 66% leuprolide)): 10%
- % Leuprolide at Day 7 ([5]; polymer reservoir, 40% in 10% Tween 20): 65%
- % Leuprolide at Day 7 ([5]; polymer reservoir, 40% in EtOH/H2O (70/30)): 85%
- % Leuprolide at Day 7 ([5]; polymer reservoir, 40% in Water): 68% and 66%
- % Leuprolide at Day 7 ([5]; titanium reservoir, 40% in Water): 71%
- leuprolide retained, in each case ([5]; all Table III formulations, 7 days at 80-88° C.): at least 65%
- aggregate formation [6, 10]: low levels of aggregate formation
- leuprolide retained, in every case [6, 10]: at least 65%
- % Leuprolide at Day 7 (RP-HPLC) ([6]; polymer reservoir, irradiated): 75%
- SEC Day 0 % dimer/trimer ([6]; polymer reservoir, irradiated): 1.2%
- SEC Day 0 % monomer ([6]; polymer reservoir, irradiated): 90.4%
- SEC Day 7 % dimer/trimer ([6]; polymer reservoir, irradiated): 3.9%
- SEC Day 7 % monomer ([6]; polymer reservoir, irradiated): 80.9%
- % Leuprolide at Day 7 (RP-HPLC) [6, 11]: 79%
- SEC Day 0 % dimer/trimer [6, 11]: 0.2%
- SEC Day 0 % monomer [6, 11]: 89.4%
- SEC Day 7 % dimer/trimer [6, 11]: 3.1%
- SEC Day 7 % monomer [6, 11]: 80.3%
- % Leuprolide at Day 7 (RP-HPLC) [6, 12]: 75%
- SEC Day 0 % dimer/trimer [6, 12]: 0.2%
- SEC Day 0 % monomer [6, 12]: 99.8%
- SEC Day 7 % dimer/trimer [6, 12]: 3.1%
- SEC Day 7 % monomer [6, 12]: 82.4%
- % Leuprolide at Day 7 (RP-HPLC) ([6]; titanium reservoir, irradiated): 83% and 81% and 73% and 79% and 74%
- SEC Day 0 % dimer/trimer ([6]; titanium reservoir, irradiated): 1.1% and 0.9% and 0.8% and 0.5%
- SEC Day 0 % monomer ([6]; titanium reservoir, irradiated): 98.5% and 98.8% and 99.1% and 99% and 98.6%
- SEC Day 7 % dimer/trimer ([6]; titanium reservoir, irradiated): 2% and 2.4% and 3% and 3.4% and 3.6%
- SEC Day 7 % monomer ([6]; titanium reservoir, irradiated): 84.9% and 94.7% and 88.3% and 94.3% and 90.9%
- % Leuprolide at Day 7 (RP-HPLC) [6, 13]: 82%
- SEC Day 0 % dimer/trimer [6, 13]: 0%
- SEC Day 0 % monomer [6, 13]: 99.6% and 99.9%
- SEC Day 7 % dimer/trimer [6, 13]: 0% and 1.9%
- SEC Day 7 % monomer [6, 13]: 96.6% and 95%
- chemical degradation [7]: 14.6%
- activation energy (Ea) of leuprolide loss ([7]; 40% (w/w) in water, 37-80° C.): 22.2 kcal/mol
- Kobs ([7]; 40% (w/w) in water, 37° C.): 7.24 × 10^-3 months^-1
- t1/2 ([7]; 40% (w/w) in water, 37° C.): 95.7 months
- t90 ([7]; 40% (w/w) in water, 37° C.): 13.8 months
- Kobs ([7]; 40% (w/w) in water, 50° C.): 3.21 × 10^-2 months^-1
- t1/2 ([7]; 40% (w/w) in water, 50° C.): 21.6 months
- Kobs ([7]; 40% (w/w) in water, 65° C.): 0.111 months^-1
- t1/2 ([7]; 40% (w/w) in water, 65° C.): 6.3 months
- Kobs ([7]; 40% (w/w) in water, 80° C.): 0.655 months^-1
- t1/2 ([7]; 40% (w/w) in water, 80° C.): 1.1 months
- physical aggregation ([7]; 40% (w/w) in water, two months at 80° C.): 5.1%
- leuprolide recovered ([7]; 40% (w/w) in water, two months at 80° C., RP-HPLC): 81.1%
- aggregation by SEC (FIG. 2) ([7]; 40% in water, two months at 80° C., dimer and trimer only): very little aggregation
- antimicrobial activity (bacteria): bacteriostatic, bactericidal and sporicidal activity
- stability of samples after spiking with bacteria (bacteria): unaffected
- effect of adding polar aprotic solvents such as DMSO on gelation [2]: prevents gelation
- leuprolide present [8]: 88.3%
- physical aggregates ("late") [8]: 3.5%
